Entries after “also recorded” stand apart in the source; their conditions may differ.

One test deals with alveolar macrophages. Put plainly: Reconstitution of adherence of B. pertussis mutant BP101/TOX6 to macrophages by exogenous PT and subunits. Type of test: cell-based. The following applies: PT component 50 ug/ml coated on BP101/TOX6; 10^7 bacteria, 10^5 rabbit alveolar macrophages, 3 hours; mean ± standard deviation. How it is done: (§1) The ability of PT or the individual subunits to act as adhesins for PT-deficient bacteria to eukaryotic cells was assessed as described by Tuomanen et al (1985). Infect. Dis. 153, 118-125 and Relman et al (199) Cell 61, 1375-1382. […] For the test reported in Table 1 PT or its individual subunits (50 ug/ml) were incubated for 30 minutes with strain BPTOX6 for ciliated cell assays or BP101/TOX6 for macrophage assays in order to coat the bacteria with adhesin. 10^7 bacteria were then incubated for 3 hours with 10^5 ciliated cells or alveolar macrophages harvested from healthy rabbits (2,4). Adherence was detected by staining of the bacteria with a 1:40 dilution of fluorescein conjugated anti-Bordetella antibody (Difco, Detroit, Mich.). Values are expressed as the mean ±standard deviation of the number of bacteria per eukaryotic cell, 25 cells/test, and each test repeated in triplicate. The procedure is described in more detail in Saukkonen et al Proc. Natl. Acad. Sci. 89,118-122 (1991).

A further test concerns ciliated cells. Put plainly: Reconstitution of adherence of B. pertussis mutant BPTOX6 to ciliated cells by exogenous PT and subunits. The following applies: PT component 50 ug/ml coated on BPTOX6; 10^7 bacteria, 10^5 rabbit ciliated cells, 3 hours; mean ± standard deviation. The test is classed as cell-based. How it is done: as §1
The test system of another test is ELAM. Nature of the test: Assay 1: inhibition of adherence of neutrophils to ELAM-coated surfaces (FIG. 4). The test is classed as cell-based. The following applies: protein at 50 ug/ml, compared to buffer control. How it is done: (§2) In the study, the proteins PT, B-oligomer, S2, S3, S2/S3 and S3/S2 were taken up in an isotonic buffered tissue culture medium to a concentration of 50 ug/ml and the ability of each of them to inhibit adhesion of neutrophils to ELAM or GMP140 was determined as described by Wright et al J. Exp. Med. 158:2016 (1983). The buffer was employed as the control and each protein studied was compared to the control for the ability to decrease adhesion capacity.
Assay 1 is inhibition of adherence of enutrophils to ELAM-coated surfaces as described in connection with FIG. 4. Values ±20% inhibition are significant.

A further test deals with GMP140. Put plainly: Inhibition of adhesion of neutrophils to GMP140 (FIG. 4B). The following applies: protein at 50 ug/ml, compared to buffer control. The test is classed as cell-based. As to the method:
as §2

Test [1] can be described thus: Carbohydrate recognition: binding to glycolipids separated by thin layer chromatography (FIG. 3). The text has this:
The variability in the S2 and S3 segments shown in FIG. 1 SEQ ID NOS:42-47 is, quite clearly responsible for the variation in carbohydrate binding properties of PT, S2 and S3 which have been observed.
The peptides S2/S3 and S3/S2 are novel therapeutic agents and are specifically included within the scope of this invention, as are the genes which express them.
In FIG. 3, the dark bars represent the positions of glycolipids after separation by thin layer chromatography in accordance with the method of Tuomanen et al, J. Exp Med 168:267, 1988.

The subject of test [2] is leukocytes in cerebrospinal fluid. Nature of the test: Rabbit model of pneumococcal meningitis: leukocytes in cerebrospinal fluid (FIG. 6b, 7B). Type of test: in vivo. To be noted: rabbits with established pneumococcal meningitis; intravenous PT or B-oligomer. The text has this:
This is shown experimentally in FIG. 6b. In the experiments rabbits with established pneumonococcal meningitis received intravenous PT or B-oligomer.
FIG. 7B illustrates the use of anti S-segment antibodies to decrease the inflammation in a rabbit model of meningitis. Rabbits with established pneumonococcal meningitis received antibodies to intact PT or PT subunits: S2:3A12, S3:6F8 and S4:9C6.

Turning to pertussis toxin [PT], in the test on alveolar macrophages, the “Number of bacteria/target cell, Macrophage” value was 21 ± 2.3 bacteria/target cell. In addition, in the test with ciliated cells, the “Number of bacteria/target cell, Ciliated Cell” value worked out at 6.7 ± 0.8 bacteria/target cell. Besides, the “inhibition of neutrophil/leukocyte adherence to ELAM” value in the test on ELAM came to 60%. The “inhibition of neutrophil adhesion to GMP140” value in the test on GMP140 worked out at 30%. The “carbohydrates (glycolipids) recognized” value in test [1] is “binds to lactosylceramide, glucosylceramide, sulfatides and gangliosides; also recorded: recognize lactosylaceramide, and gangliosides”. Moreover, the “accumulation of leukocytes in cerebrospinal fluid” value in test [2] is listed as “decreased the accumulation of leukocytes in cerebrospinal fluid”.

The values are drawn from US5817617A, “Selectin and pertussis toxin derived peptides and uses thereof” (The Rockefeller University, priority 1994, dated 1998).
